Measurements reported in patent publication US12552938B2, “Deuterated fluorophores” (HOWARD HUGHES MEDICAL INSTITUTE, priority 2018, dated 2026).
Entries after “also recorded” stand apart in the source; their conditions may differ. Counter-ions that a name gives are not always drawn.

What was measured:
[1] = spectral properties of free dyes (absorbance, fluorescence emission, ε, Φ, intrinsic brightness); type: physicochemical; conditions: 10 mM HEPES pH 7.3; for extinction coefficient (ε) compared to nondeuterated parent / fluorescence quantum yield (Φ) compared to nondeuterated parent / intrinsic brightness (ε×Φ): free dye; for intrinsic brightness (ε×Φ): in vitro
[2] = photobleaching of free dyes in vitro; type: physicochemical; conditions: for chromostability during bleaching: compared to nondeuterated compounds 15 and 17; for photobleaching / in vitro photostability compared to nondeuterated parent: free dye, 10 mM HEPES pH 7.3; for blue-shift of fluorescence emission during photobleaching due to dealkylation: spectra taken periodically during photobleaching
[3] = relative singlet oxygen quantum yield of free dyes; type: physicochemical; conditions: free dye
HaloTag protein [4] = test: fluorescence quantum yield of HaloTag-bound ligands in vitro; type: physicochemical; conditions: attached to HaloTag protein
Experimental: These dyes were then tested as protein conjugates in vitro and in living cells. […] Both J ligands could label HaloTag-histone H2B fusions in living cells (FIG. 24, FIG. 25).

HaloTag protein [5] = test: relative singlet oxygen quantum yield of HaloTag-bound ligands; type: physicochemical
histone H2B-HaloTag = test: fluorescence lifetime in live cells measured using FLIM; type: cell-based; conditions: histone H2B-HaloTag-bound
[6] = test system: histone H2B-HaloTag fusion; test: labeling of cells expressing histone H2B-HaloTag fusion and imaging; type: cell-based, mammalian cell; conditions: 10 pM, 30 min, washed 30 minutes
Sox2-HaloTag fusions = test: live-cell single-particle tracking of HaloTag ligands; type: cell-based; conditions: HaloTag conjugates; for brightness in cells (photons/s): equivalent imaging conditions
[7] = deuterated vs nondeuterated TMR

For `[2H]C1([2H])N(c2ccc3c(-c4ccccc4C(=O)[O-])c4ccc(=[N+]5C([2H])([2H])C([2H])([2H])C([2H])([2H])C([2H])([2H])C5([2H])[2H])cc-4oc3c2)C([2H])([2H])C([2H])([2H])C([2H])([2H])C1([2H])[2H]` [Compound 20, 2-(3,6-Bis(piperidin-1-yl-d10)xanthylium-9-yl)benzoate], the “absorption and emission maxima / spectral shape compared to nondeuterated parent” value [1] was “no change in spectral shape”, the “extinction coefficient (ε) compared to nondeuterated parent” value [1] was “increases” and the “fluorescence quantum yield (Φ) compared to nondeuterated parent” value [1] was “increases”. For the same molecule, the chromostability during bleaching [2] was “higher”.

In the case of `[2H]C1([2H])OC([2H])([2H])C([2H])([2H])N(c2ccc3c(-c4ccccc4C(=O)[O-])c4ccc(=[N+]5C([2H])([2H])C([2H])([2H])OC([2H])([2H])C5([2H])[2H])cc-4oc3c2)C1([2H])[2H]` [Compound 22, 2-(3,6-Bis(morpholino-d8)xanthylium-9-yl)benzoate], the “absorption and emission maxima / spectral shape compared to nondeuterated parent” value [1] is reported as “no change in spectral shape”, the “extinction coefficient (ε) compared to nondeuterated parent” value [1] is reported as “increases” and the “fluorescence quantum yield (Φ) compared to nondeuterated parent” value [1] is reported as “increases”.

For `[2H]C1([2H])N(c2ccc3c(c2)[Si](C)(C)C2=CC(=[N+]4C([2H])([2H])C([2H])([2H])C([2H])([2H])C4([2H])[2H])C=CC2=C3c2ccccc2C(=O)[O-])C([2H])([2H])C([2H])([2H])C1([2H])[2H]` [Compound 33, 2-(5,5-Dimethyl-3,7-bis(pyrrolidin-1-yl-d8)dibenzo[b,e]silin-10-ylium-10(5H)-yl)benzoate], the “extinction coefficient (ε) compared to nondeuterated parent” value [1] was “substantial increase” and the “fluorescence quantum yield (Φ) compared to nondeuterated parent” value [1] was “substantial increase”.

In the case of `[2H]C1([2H])N(c2ccc3c(c2)C(C)(C)C2=CC(=[N+]4C([2H])([2H])C([2H])([2H])C([2H])([2H])C4([2H])[2H])C=CC2=C3c2ccccc2C(=O)[O-])C([2H])([2H])C([2H])([2H])C1([2H])[2H]` [Compound 29, 2-(10,10-Dimethyl-3,6-bis(pyrrolidin-1-yl-d8)anthracen-9-ylium-9(10H)-yl)benzoate], the “extinction coefficient (ε) compared to nondeuterated parent” value [1] is reported as “substantial increases” and the “fluorescence quantum yield (Φ) compared to nondeuterated parent” value [1] is reported as “substantial increases”.

With `[2H]C1([2H])N(c2ccc3c(-c4ccccc4C(=O)[O-])c4ccc(=[N+]5C([2H])([2H])C([2H])([2H])C([2H])([2H])C5([2H])[2H])cc-4oc3c2)C([2H])([2H])C([2H])([2H])C1([2H])[2H]` [Compound 18, 2-(3,6-Bis(pyrrolidin-1-yl-d8)xanthylium-9-yl)benzoate] the “absorption and emission maxima / spectral shape compared to nondeuterated parent” value [1] was “no change in spectral shape”, the “intrinsic brightness (ε×Φ)” value [1] was “equivalent brightness” and the “extinction coefficient (ε) compared to nondeuterated parent” value [1] was “increases”. The “fluorescence quantum yield (Φ) compared to nondeuterated parent” value [1] was “increases”, the chromostability during bleaching [2] was “higher” and the “photobleaching / in vitro photostability compared to nondeuterated parent” value [2] was “improved in vitro photostability”.

For `[2H]C1([2H])N(c2ccc3c(c2)C(C)(C)C2=CC(=[N+]4C([2H])([2H])C([2H])([2H])C4([2H])[2H])C=CC2=C3c2ccccc2C(=O)[O-])C([2H])([2H])C1([2H])[2H]` [Compound 27, 2-(3,6-Bis(azetidin-1-yl-d6)-10,10-dimethylanthracen-9-ylium-9(10H)-yl)benzoate], the “extinction coefficient (ε) compared to nondeuterated parent” value [1] was “substantial increases” and the “fluorescence quantum yield (Φ) compared to nondeuterated parent” value [1] was “substantial increases”.

In the case of `[2H]C1([2H])N(c2ccc3nc4ccc(=[N+]5C([2H])([2H])C([2H])([2H])C([2H])([2H])C5([2H])[2H])cc-4oc3c2)C([2H])([2H])C([2H])([2H])C1([2H])[2H]` [Compound 44, 3,7-Bis(pyrrolidin-1-yl-d8)phenoxazin-5-ium trifluoroacetate], the “fluorescence quantum yield (Φ) compared to nondeuterated parent” value [1] is reported as “substantial increase”.

With `[2H]C1([2H])N(c2ccc3c(-c4ccccc4C(=O)[O-])c4ccc(=[N+]5C([2H])([2H])C([2H])([2H])C5([2H])[2H])cc-4oc3c2)C([2H])([2H])C1([2H])[2H]` [Compound 16, 2-(3,6-Bis(azetidin-1-yl-d6)xanthylium-9-yl)benzoate] the “extinction coefficient (ε) compared to nondeuterated parent” value [1] was “no improvement”, the “fluorescence quantum yield (Φ) compared to nondeuterated parent” value [1] was “no improvement” and the “photobleaching / in vitro photostability compared to nondeuterated parent” value [2] was “no improvement”. The “blue-shift of fluorescence emission during photobleaching due to dealkylation” value [2] was 4 nm and the “singlet oxygen (1O2) quantum yield compared to nondeuterated parent” value [3] was “significantly lower”.

In the case of `[2H]C1([2H])N(c2ccc3c(-c4cc(C(=O)NCCOCCOCCCCCCCl)ccc4C(=O)[O-])c4ccc(=[N+]5C([2H])([2H])C([2H])([2H])C5([2H])[2H])cc-4oc3c2)C([2H])([2H])C1([2H])[2H]` [Compound 24, 2-(3,6-Bis(azetidin-1-yl-d6)xanthylium-9-yl)-4-((2-(2-((6-chlorohexyl)oxy)ethoxy)ethyl)carbamoyl)benzoate], the “fluorescence quantum yield of HaloTag conjugate compared to nondeuterated ligand” value (HaloTag protein [4]) is reported as “higher”, the “1O2 generation of HaloTag-bound ligand compared to nondeuterated ligand” value (HaloTag protein [5]) is reported as “significantly suppressed” and the “fluorescence lifetime (τ) of HaloTag conjugate in cells compared to nondeuterated ligand” value (histone H2B-HaloTag) is reported as “longer”. For the same molecule, the “labeling of HaloTag-histone H2B fusions in living cells” value (“labeling” below) [6] was “could label”, the “photostability in cells (average track length of individual molecules)” value (from here on “photostability in cells”) (Sox2-HaloTag fusions) was “no improvement” and the “brightness in cells (photons/s)” value (Sox2-HaloTag fusions) was “higher brightness”.

With `[2H]C1([2H])N(c2ccc3c(-c4cc(C(=O)NCCOCCOCCCCCCCl)ccc4C(=O)[O-])c4ccc(=[N+]5C([2H])([2H])C([2H])([2H])C([2H])([2H])C5([2H])[2H])cc-4oc3c2)C([2H])([2H])C([2H])([2H])C1([2H])[2H]` [Compound 25, 2-(3,6-Bis(pyrrolidin-1-yl-d8)xanthylium-9-yl)-4-((2-(2-((6-chlorohexyl)oxy)ethoxy)ethyl)carbamoyl)benzoate] the “labeling” value [6] was “excellent live-cell label”, the “photostability in cells” value (Sox2-HaloTag fusions) was “significantly longer tracks” and the “brightness in cells (photons/s)” value (Sox2-HaloTag fusions) was “higher brightness”.

For `[2H]C1([2H])N(c2ccc3c(c2)[Si](C)(C)C2=CC(=[N+]4C([2H])([2H])C([2H])([2H])C4([2H])[2H])C=CC2=C3c2ccccc2C(=O)[O-])C([2H])([2H])C1([2H])[2H]` [Compound 31, 2-(3,7-Bis(azetidin-1-yl-d6)-5,5-dimethyldibenzo[b,e]silin-10-ylium-10(5B)-yl)benzoate], the “intrinsic brightness (ε×Φ)” value [1] was “increase”, the “extinction coefficient (ε) compared to nondeuterated parent” value [1] was “modestly increased” and the “fluorescence quantum yield (Φ) compared to nondeuterated parent” value [1] was “did not elicit a large increase”.

With `O=C1OC2(c3ccc(N4CCC4)cc3Oc3cc(N4CCC4)ccc32)c2ccccc21` [Compound 15, reference compound] the “blue-shift of fluorescence emission during photobleaching due to dealkylation” value [2] was 9 nm.

For `[2H]C1([2H])N(c2ccc3c(C)cc(=O)oc3c2)C([2H])([2H])C1([2H])[2H]` [Compound 40, 7-(Azetidin-1-yl-d6)-4-methyl-2H-chromen-2-one], the “extinction coefficient (ε) compared to nondeuterated parent” value [1] was “similar” and the “fluorescence quantum yield (Φ) compared to nondeuterated parent” value [1] was “small decrease”.

With `[2H]C1([2H])N(c2ccc3c(c2)[Si](C)(C)C2=CC(=[N+]4C([2H])([2H])C([2H])([2H])C4([2H])[2H])C=CC2=C3c2cc(C(=O)NCCOCCOCCCCCCCl)ccc2C(=O)[O-])C([2H])([2H])C1([2H])[2H]` [Compound 37, 2-(3,7-Bis(azetidin-1-yl-d6)-5,5-dimethyldibenzo[b,e]silin-10-ylium-10(51)-yl)-4-((2-(2-((6-chlorohexyl)oxy)ethoxy)ethyl)carbamoyl)benzoate] the “fluorescence quantum yield of HaloTag conjugate compared to nondeuterated ligand” value (HaloTag protein [4]) was “substantial increase”, the “1O2 generation of HaloTag-bound ligand compared to nondeuterated ligand” value (HaloTag protein [5]) was “lower” and the “fluorescence lifetime (τ) of HaloTag conjugate in cells compared to nondeuterated ligand” value (histone H2B-HaloTag) was “increased”. For the same molecule, the “labeling” value [6] was “suitable labels”, the “photostability in cells” value (Sox2-HaloTag fusions) was “more photostable” and the “brightness in cells (photons/s)” value (Sox2-HaloTag fusions) was “higher brightness”.

For `[2H]C1([2H])N(c2ccc3c(c2)[Si](C)(C)C2=CC(=[N+]4C([2H])([2H])C([2H])([2H])C([2H])([2H])C4([2H])[2H])C=CC2=C3c2cc(C(=O)NCCOCCOCCCCCCCl)ccc2C(=O)[O-])C([2H])([2H])C([2H])([2H])C1([2H])[2H]` [Compound 38, 4-((2-(2-((6-Chlorohexyl)oxy)ethoxy)ethyl)carbamoyl)-2-(5,5-dimethyl-3,7-bis(pyrrolidin-1-yl-d8)dibenzo[b,e]silin-10-ylium-10(5H)-yl)benzoate], the “labeling” value [6] was “improved cellular labeling”, the “photostability in cells” value (Sox2-HaloTag fusions) was “more photostable; also recorded: longest average single-molecule track length” and the “brightness in cells (photons/s)” value (Sox2-HaloTag fusions) was “highest photons/s”.

For `[2H]C([2H])([2H])N(c1ccc2c(-c3ccccc3C(=O)[O-])c3ccc(=[N+](C([2H])([2H])[2H])C([2H])([2H])[2H])cc-3oc2c1)C([2H])([2H])[2H]` [Compound 14, 2-(3,6-Bis(bis(methyl-d3)amino)xanthylium-9-yl)benzoate], the “absorption and emission maxima / spectral shape compared to nondeuterated parent” value [1] was “remarkably similar”, the “increase in extinction coefficient at λmax (ε) compared to 1” value [1, 7] was roughly 20% and the “increase in fluorescence quantum yield (Φ) compared to 1” value [1, 7] was roughly 20%. For the same molecule, the “photobleaching / in vitro photostability compared to nondeuterated parent” value [2] was “slower rate of photobleaching”.

In the case of `[2H]C1([2H])N(c2ccc3c(C)cc(=O)oc3c2)C([2H])([2H])C([2H])([2H])C1([2H])[2H]` [Compound 42, 4-Methyl-7-(pyrrolidin-1-yl-d8)-2H-chromen-2-one], the “extinction coefficient (ε) compared to nondeuterated parent” value [1] is reported as “equivalent” and the “fluorescence quantum yield (Φ) compared to nondeuterated parent” value [1] is reported as “significantly higher”.
